Assay: xn = mol fraction of the nth substance listed
Conditions: 100 kPa, Liquid; for speed of sound: Frequency=3 MHz, Single path-length method; for mass density: Vibrating tube method

CCCCOCCOCCO [3,6-dioxa-1-decanol] + CCCCCCCCCCO
Conditions | mass density, 293.15 K [kg/m3] | mass density, 298.15 K [kg/m3] | mass density, 303.15 K [kg/m3] | mass density, 308.15 K [kg/m3] | mass density, 313.15 K [kg/m3] | speed of sound, 293.15 K [m/s] | speed of sound, 298.15 K [m/s] | speed of sound, 303.15 K [m/s] | speed of sound, 308.15 K [m/s] | speed of sound, 313.15 K [m/s]
x1 = 0.0523 | 835.331 | 831.923 | 828.507 | 825.069 | 821.625 | 1393.8 | 1376.5 | 1359.8 | 1343.3 | 1326.4
x1 = 0.102 | 840.692 | 837.244 | 833.786 | 830.318 | 826.838 | 1391.2 | 1374.1 | 1357.4 | 1340.8 | 1324
x1 = 0.1579 | 846.823 | 843.333 | 839.841 | 836.332 | 832.81 | 1388.7 | 1371.5 | 1354.9 | 1338.3 | 1321.7
x1 = 0.207 | 852.21 | 848.697 | 845.172 | 841.631 | 838.082 | 1386.6 | 1369.3 | 1352.7 | 1336 | 1319.7
x1 = 0.2513 | 857.155 | 853.609 | 850.057 | 846.484 | 842.906 | 1385 | 1367.4 | 1350.8 | 1334.1 | 1318
x1 = 0.3099 | 863.89 | 860.297 | 856.695 | 853.085 | 849.466 | 1382.7 | 1365.1 | 1348.6 | 1331.8 | 1315.9
x1 = 0.4046 | 875.017 | 871.358 | 867.688 | 864.011 | 860.317 | 1379.6 | 1362.3 | 1345.7 | 1328.8 | 1312.8
x1 = 0.5087 | 887.59 | 883.854 | 880.111 | 876.354 | 872.591 | 1376.9 | 1359.7 | 1343.1 | 1326 | 1310.2
x1 = 0.6073 | 899.873 | 896.063 | 892.242 | 888.409 | 884.574 | 1374.5 | 1358.4 | 1341.8 | 1324.7 | 1308.1
x1 = 0.7051 | 912.356 | 908.464 | 904.568 | 900.658 | 896.746 | 1373.9 | 1357.8 | 1341.3 | 1323.9 | 1307.1
x1 = 0.7952 | 924.132 | 920.17 | 916.202 | 912.22 | 908.239 | 1373.4 | 1357.9 | 1341.4 | 1323.9 | 1306.6
x1 = 0.8515 | 931.68 | 927.667 | 923.651 | 919.614 | 915.585 | 1373.4 | 1358.6 | 1342.2 | 1324.6 | 1306.5
x1 = 0.9006 | 938.376 | 934.318 | 930.252 | 926.171 | 922.107 | 1374.5 | 1359.6 | 1343.1 | 1325.4 | 1307.4
x1 = 0.9379 | 943.482 | 939.393 | 935.294 | 931.189 | 927.082 | 1374.9 | 1360.6 | 1344.1 | 1326.3 | 1307.7
x1 = 1 | 952.288 | 948.1 | 943.909 | 939.704 | 935.503 | 1378.2 | 1361.3 | 1344.5 | 1326.4 | 1307.7

CCCCOCCOCCO [3,6-dioxa-1-decanol] + CCCCCCCCO
Conditions | mass density, 293.15 K [kg/m3] | mass density, 298.15 K [kg/m3] | mass density, 303.15 K [kg/m3] | mass density, 308.15 K [kg/m3] | mass density, 313.15 K [kg/m3] | speed of sound, 293.15 K [m/s] | speed of sound, 298.15 K [m/s] | speed of sound, 303.15 K [m/s] | speed of sound, 308.15 K [m/s] | speed of sound, 313.15 K [m/s]
x1 = 0.0518 | 832.225 | 828.746 | 825.244 | 821.725 | 818.179 | 1364.4 | 1347.4 | 1330.7 | 1313.9 | 1297.4
x1 = 0.1019 | 838.886 | 835.371 | 831.834 | 828.281 | 824.7 | 1363.4 | 1346.4 | 1329.7 | 1313 | 1296.4
x1 = 0.1605 | 846.645 | 843.087 | 839.508 | 835.909 | 832.289 | 1362.8 | 1345.8 | 1329.1 | 1312.5 | 1296
x1 = 0.1994 | 851.754 | 848.167 | 844.558 | 840.932 | 837.284 | 1362.4 | 1345.5 | 1328.8 | 1312.1 | 1295.6
x1 = 0.2503 | 858.438 | 854.812 | 851.169 | 847.507 | 843.826 | 1362.1 | 1345.3 | 1328.5 | 1311.9 | 1295.5
x1 = 0.303 | 865.322 | 861.66 | 857.975 | 854.271 | 850.554 | 1362 | 1345.2 | 1328.5 | 1311.9 | 1295.4
x1 = 0.4013 | 878.059 | 874.317 | 870.565 | 866.793 | 863.012 | 1362.5 | 1345.7 | 1329 | 1312.4 | 1296
x1 = 0.4999 | 890.695 | 886.882 | 883.058 | 879.218 | 875.365 | 1363.2 | 1346.4 | 1329.7 | 1313.1 | 1296.7
x1 = 0.5918 | 902.338 | 898.456 | 894.568 | 890.661 | 886.747 | 1364.5 | 1347.6 | 1330.9 | 1314.3 | 1297.8
x1 = 0.7043 | 916.351 | 912.393 | 908.423 | 904.44 | 900.454 | 1366.7 | 1349.8 | 1333.1 | 1316.5 | 1299.9
x1 = 0.8085 | 929.131 | 925.094 | 921.053 | 916.997 | 912.939 | 1369.4 | 1352.4 | 1335.7 | 1319 | 1302.5
x1 = 0.848 | 933.965 | 929.901 | 925.834 | 921.75 | 917.662 | 1370.8 | 1353.8 | 1336.8 | 1320.1 | 1303.6
x1 = 0.901 | 940.359 | 936.257 | 932.151 | 928.029 | 923.906 | 1373 | 1356 | 1339.2 | 1322.4 | 1305.8
x1 = 0.9501 | 946.262 | 942.124 | 937.981 | 933.818 | 929.657 | 1374.3 | 1357.3 | 1340.4 | 1323.7 | 1307
x1 = 1 | 952.288 | 948.1 | 943.909 | 939.704 | 935.503 | 1378.2 | 1361.3 | 1344.5 | 1326.4 | 1307.7

CCCCOCCOCCO [3,6-dioxa-1-decanol] + CCCCCCO
Conditions | mass density, 293.15 K [kg/m3] | mass density, 298.15 K [kg/m3] | mass density, 303.15 K [kg/m3] | mass density, 308.15 K [kg/m3] | mass density, 313.15 K [kg/m3] | speed of sound, 293.15 K [m/s] | speed of sound, 298.15 K [m/s] | speed of sound, 303.15 K [m/s] | speed of sound, 308.15 K [m/s] | speed of sound, 313.15 K [m/s]
x1 = 0.0612 | 830.032 | 826.42 | 822.781 | 819.109 | 815.428 | 1323.2 | 1306.7 | 1289.7 | 1273.2 | 1256.6
x1 = 0.1016 | 836.858 | 833.209 | 829.539 | 825.839 | 822.126 | 1325.7 | 1309 | 1292.1 | 1275.4 | 1259.1
x1 = 0.1593 | 846.323 | 842.636 | 838.928 | 835.192 | 831.439 | 1329.1 | 1312.2 | 1295.4 | 1278.6 | 1262.3
x1 = 0.2053 | 853.619 | 849.892 | 846.155 | 842.384 | 838.617 | 1331.8 | 1314.9 | 1298.2 | 1281.3 | 1265
x1 = 0.251 | 860.647 | 856.892 | 853.123 | 849.323 | 845.516 | 1334.4 | 1317.5 | 1301 | 1283.8 | 1267.6
x1 = 0.3095 | 869.401 | 865.605 | 861.792 | 857.954 | 854.105 | 1337.5 | 1320.9 | 1304.2 | 1287.1 | 1271.2
x1 = 0.4054 | 883.079 | 879.224 | 875.359 | 871.465 | 867.564 | 1343.2 | 1326.3 | 1309.8 | 1292.4 | 1276.4
x1 = 0.5021 | 896.077 | 892.169 | 888.244 | 884.294 | 880.34 | 1348.5 | 1331.7 | 1314.9 | 1297.7 | 1281.6
x1 = 0.6049 | 909.164 | 905.192 | 901.21 | 897.205 | 893.199 | 1354.2 | 1337.5 | 1320.8 | 1303.3 | 1287.3
x1 = 0.6982 | 920.378 | 916.352 | 912.316 | 908.259 | 904.202 | 1359.8 | 1342.7 | 1326.1 | 1308.4 | 1292.7
x1 = 0.801 | 931.924 | 927.842 | 923.754 | 919.65 | 915.548 | 1365.5 | 1348.7 | 1331.8 | 1314.2 | 1298.2
x1 = 0.8313 | 935.198 | 931.096 | 926.99 | 922.874 | 918.76 | 1367.2 | 1350.3 | 1333.3 | 1315.8 | 1299.6
x1 = 0.9042 | 942.783 | 938.65 | 934.516 | 930.365 | 926.213 | 1372.5 | 1354.8 | 1338.3 | 1320.2 | 1304.8
x1 = 1 | 952.288 | 948.1 | 943.909 | 939.704 | 935.503 | 1378.2 | 1361.3 | 1344.5 | 1326.4 | 1307.7

Reference: the NIST ThermoML archive (doi:10.1016/j.jct.2018.06.015)
